Measurements from patent publication US10730870B2, “Compounds and methods for the enhanced degradation of targeted proteins” (Arvinas, Inc., priority 2015, dated 2020).

Biological target: VHL (Homo sapiens (Human), UniProt P40337)
Test: VHL fluorescence polarization (FP) competition assay
Type: binding

Structure (SMILES) | IC50 (1% in DMSO) [nM] | IC50 (10% in DMSO) [nM] | IC50 (0.25% in DMSO) [nM]
CC(C)[C@@H](C(=O)N1C[C@H](O)C[C@H]1C(=O)NCc1ccc(-c2scnc2Br)cc1)N1Cc2ccccc2C1=O [Example 1, (2S,4R)—N-(4-(4-bromothiazol-5-yl)benzyl)-4-hydroxy-1-((S)-3-methyl-2-(1-oxoisoindolin-2-yl)butanoyl)pyrrolidine-2-carboxamide] | 2380 | 2280 | 
CC(C)[C@@H](C(=O)N1C[C@H](O)C[C@H]1C(=O)NCc1ccc(-c2scnc2C2CC2)cc1)N1Cc2ccccc2C1=O [Example 2, (2S,4R)—N-(4-(4-cyclopropylthiazol-5-yl)benzyl)-4-hydroxy-1-((S)-3-methyl-2-(1-oxoisoindolin-2-yl)butanoyl)pyrrolidine-2-carboxamide] | 732 | 533 | 2860
C=Cc1ncsc1-c1ccc(CNC(=O)[C@@H]2C[C@@H](O)CN2C(=O)[C@H](C(C)C)N2Cc3ccccc3C2=O)cc1 [Example 4, (2S,4R)-4-hydroxy-1-((S)-3-methyl-2-(1-oxoisoindolin-2-yl)butanoyl)-N-(4-(4-vinylthiazol-5-yl)benzyl)pyrrolidine-2-carboxamide] | 1220 | 1940 | 3340
CCc1ncsc1-c1ccc(CNC(=O)[C@@H]2C[C@@H](O)CN2C(=O)[C@H](C(C)C)N2Cc3ccccc3C2=O)cc1 [Example 5, (2S,4R)—N-(4-(4-ethylthiazol-5-yl)benzyl)-4-hydroxy-1-((S)-3-methyl-2-(1-oxoisoindolin-2-yl)butanoyl)pyrrolidine-2-carboxamide] | 799 | 1580 | 7720
Cc1ncsc1-c1ccc(CNC(=O)[C@@H]2C[C@@H](O)CN2C(=O)[C@H](C(C)C)N2Cc3ccccc3C2=O)cc1 [Example 6, (2S,4R)-4-hydroxy-1-((S)-3-methyl-2-(1-oxoisoindolin-2-yl)butanoyl)-N-(4-(4-methylthiazol-5-yl)benzyl)pyrrolidine-2-carboxamide] | 697 | 1480 | 6370
Cc1ncsc1-c1ccc(CNC(=O)[C@@H]2C[C@@H](O)CN2C(=O)[C@H](C(C)C)N2Cc3cccc(Cl)c3C2=O)cc1 [Example 7, (2S,4R)-1-((S)-2-(7-cloro-1-oxoisoindolin-2-yl)-3-methylbutanoyl)-4-hydroxy-N-(4-(4-methylthiazol-5-yl)benzyl)pyrrolidine-2-carboxamide] | 7510 | 8520 | 
Cc1ncsc1-c1ccc(CNC(=O)[C@@H]2C[C@@H](O)CN2C(=O)[C@H](C(C)C)N2Cc3cccc(F)c3C2=O)cc1 [Example 8, (2S,4R)-1-((S)-2-(7-fluoro-1-oxoisoindolin-2-yl)-3-methylbutanoyl)-4-hydroxy-N-(4-(4-methylthiazol-5-yl)benzyl)pyrrolidine-2-carboxamide] | 619 | 1330 | 3040
Cc1ncsc1-c1ccc(CNC(=O)[C@@H]2C[C@@H](O)CN2C(=O)[C@H](C(C)C)N2Cc3ccc(F)cc3C2=O)cc1 [Example 9] | 309 | 498 | 1280
Cc1ncsc1-c1ccc(CNC(=O)[C@@H]2C[C@@H](O)CN2C(=O)[C@@H](C(C)C)N2Cc3ccc(F)cc3C2=O)cc1 [Example 10, (2S,4R)-1-((R)-2-(6-fluoro-1-oxoisoindolin-2-yl)-3-methylbutanoyl)-4-hydroxy-N-(4-(4-methylthiazol-5-yl)benzyl)pyrrolidine-2-carboxamide] | ~6730 | 295000 | 
CCCC(=O)N[C@H](C(=O)N1C[C@H](O)C[C@H]1C(=O)NCc1ccc(-c2scnc2C)cc1)C(C)(C)C [Example 13, (2S,4R)-1-((S)-2-butyramido-3,3-dimethylbutanoyl)-4-hydroxy-N-(4-(4-methylthiazol-5-yl)benzyl)pyrrolidine-2-carboxamide] | 1340 | 2940 | 3370
Cc1ncsc1-c1ccc(CNC(=O)[C@@H]2C[C@@H](O)CN2C(=O)[C@@H](NC(=O)C(C)(C)C)C(C)(C)C)cc1 [Example 14, (2S,4R)-1-((S)-3,3-dimethyl-2-pivalamidobutanoyl)-4-hydroxy-N-(4-(4-methylthiazol-5-yl)benzyl)pyrrolidine-2-carboxamide] | 4630 | 13300 | 7150
COc1cccc2c1C(=O)N([C@H](C(=O)N1C[C@H](O)C[C@H]1C(=O)NCc1ccc(-c3scnc3C)cc1)C(C)C)C2 [Example 15, (2S,4R)-4-hydroxy-1-((S)-2-(7-methoxy-1-oxoisoindolin-2-yl)-3-methylbutanoyl)-N-(4-(4-methylthiazol-5-yl)benzyl)pyrrolidine-2-carboxamide] | 24500 | 81900 | 1220
Cc1ncsc1-c1ccc(CNC(=O)[C@@H]2C[C@@H](O)CN2C(=O)[C@H](C(C)C)N2Cc3cc(F)ccc3C2=O)cc1 [Example 16, (2S,4R)-1-((S)-2-(5-fluoro-1-oxoisoindolin-2-yl)-3-methylbutanoyl)-4-hydroxy-N-(4-(4-methylthiazol-5-yl)benzyl)pyrrolidine-2-carboxamide] | 265 | 1800 | 2950
Cc1ncsc1-c1ccc(CNC(=O)[C@@H]2C[C@@H](O)CN2C(=O)[C@H](C(C)C)N2Cc3ccc(C#N)cc3C2=O)cc1 [Example 17, (2S,4R)-1-((S)-2-(6-cyano-1-oxoisoindolin-2-yl)-3-methylbutanoyl)-4-hydroxy-N-(4-(4-methylthiazol-5-yl)benzyl)pyrrolidine-2-carboxamide] | 317 | 1070 | 2200
Cc1ncsc1-c1ccc(CNC(=O)[C@@H]2C[C@@H](O)CN2C(=O)[C@@H](NC(=O)CC(C)C)C(C)(C)C)cc1 [Example 18, (2S,4R)-1-((S)-3,3-dimethyl-2-(3-methylbutanamido)butanoyl)-4-hydroxy-N-(4-(4-methylthiazol-5-yl)benzyl)pyrrolidine-2-carboxamide] | 855 | 2720 | 5500
Cc1ncsc1-c1ccc(CNC(=O)[C@@H]2C[C@@H](O)CN2C(=O)[C@@H](NC(=O)CC2CCCCC2)C(C)(C)C)cc1 [Example 19, (2S,4R)-1-((S)-2-(2-cyclohexylacetamido)-3,3-dimethylbutanoyl)-4-hydroxy-N-(4-(4-methylthiazol-5-yl)benzyl)pyrrolidine-2-carboxamide] | 937 | 1650 | 3770
Cc1ncsc1-c1ccc(CNC(=O)[C@@H]2C[C@@H](O)CN2C(=O)[C@@H](NC(=O)CCC2CCCCC2)C(C)(C)C)cc1 [Example 20, (2S,4R)-1-((S)-2-(3-cyclohexylpropanamido)-3,3-dimethylbutanoyl)-4-hydroxy-N-(4-(4-methylthiazol-5-yl)benzyl)pyrrolidine-2-carboxamide] | 1050 | 1150 | 4960
CSC[C@H](NC(=O)CCC(C)C)C(=O)N1C[C@H](O)C[C@H]1C(=O)NCc1ccc(-c2scnc2C)cc1 [Example 22, (2S,4R)-4-hydroxy-1-((R)-2-(4-methylpentanamido)-3-(methylthio)propanoyl)-N-(4-(4-methylthiazol-5-yl)benzyl)pyrrolidine-2-carboxamide] | 6250 | 8290 | 
CC(C)[C@@H](C(=O)N1C[C@H](O)C[C@H]1C(=O)NCc1ccc(Br)cc1)N1Cc2ccccc2C1=O [Example 23, (2S,4R)—N-(4-bromobenzyl)-4-hydroxy-1-((S)-3-methyl-2-(1-oxoisoindolin-2-yl)butanoyl)pyrrolidine-2-carboxamide] | 2510 | 6040 | 1140
CC(C)[C@@H](C(=O)N1C[C@H](O)C[C@H]1C(=O)N[C@@H](C)c1ccc(Br)cc1)N1Cc2ccccc2C1=O [Example 24, (2S,4R)—N—((S)-1-(4-bromophenyl)ethyl)-4-hydroxy-1-((S)-3-methyl-2-(1-oxoisoindolin-2-yl)butanoyl)pyrrolidine-2-carboxamide] | 8650 | 28000 | 1390
Cc1ncsc1-c1ccc(CNC(=O)[C@@H]2C[C@@H](O)CN2C(=O)[C@H](C(C)C)N2Cc3cc(Br)ccc3C2=O)cc1 [Example 25, (2S,4R)-1-((S)-2-(5-bromo-1-oxoisoindolin-2-yl)-3-methylbutanoyl)-4-hydroxy-N-(4-(4-methylthiazol-5-yl)benzyl)pyrrolidine-2-carboxamide] | 1330 | 1670 | 2380
Cc1ncsc1-c1ccc(CNC(=O)[C@@H]2C[C@@H](O)CN2C(=O)[C@H](C(C)C)N2Cc3c(Br)cccc3C2=O)cc1 [Example 26, (2S,4R)-1-((S)-2-(4-bromo-1-oxoisoindolin-2-yl)-3-methylbutanoyl)-4-hydroxy-N-(4-(4-methylthiazol-5-yl)benzyl)pyrrolidine-2-carboxamide] | 941 | 441 | 2940
Cc1ncsc1-c1ccc(CNC(=O)[C@@H]2C[C@@H](O)CN2C(=O)[C@@H](NC(=O)C(C)C)C(C)(C)C)cc1 [Example 27, (2S,4R)-4-hydroxy-1-((S)-2-isobutyramido-3,3-dimethylbutanoyl)-N-(4-(4-methylthiazol-5-yl)benzyl)pyrrolidine-2-carboxamide] | 3040 | 8310 | ~1570
Cc1ncsc1-c1ccc(CNC(=O)[C@@H]2C[C@@H](O)CN2C(=O)[C@@H](NC(=O)CCC(C)C)C(C)(C)C)cc1 [Example 28, (2S,4R)-1-((S)-3,3-dimethyl-2-(4-methylpentanamido)butanoyl)-4-hydroxy-N-(4-(4-methylthiazol-5-yl)benzyl)pyrrolidine-2-carboxamide] | 2210 | 3600 | 4470
Cc1ncsc1-c1ccc(CNC(=O)[C@@H]2C[C@@H](O)CN2C(=O)[C@@H](NC(=O)c2ccccc2)C(C)(C)C)cc1 [Example 29, (2S,4R)-1-((S)-2-benzamido-3,3-dimethylbutanoyl)-4-hydroxy-N-(4-(4-methylthiazol-5-yl)benzyl)pyrrolidine-2-carboxamide] | 905 | 1850 | 2420
